Laboratory results published in PMC6344423, “Opposing Actions of Adrenocorticotropic Hormone and Glucocorticoids on UCP1-Mediated Respiration in Brown Adipocytes” (Frontiers in Physiology, 2019).

Legend:
[1] = tested on: primary brown adipocytes of UCP1^-/-; experiment: Respirometry in primary brown adipocytes of UCP1^-/- mice; format: cell-based, mouse; conditions: ACTH 1 μM, n = 3, Figure 2G
Description: Oxygen consumption of primary brown adipocytes was measured at 37°C using microplate-based respirometry (XF96 extracellular flux analyzer, Seahorse Bioscience) as described previously ([Li et al., 2014b]) following the subsequent protocol at day 7 of differentiation. Prior to the respiration measurement, primary cells were washed with warmed, unbuffered assay medium (DMEM basal medium supplemented with 25 mM glucose, 31 mM NaCl, 2 mM GlutaMax and 15 mg/l phenol red, pH 7.4) (basal assay medium). Subsequent to the medium replacement with basal assay medium containing 1–2% essentially fatty acid free bovine serum albumin (BSA), cells were incubated at 37°C in a CO2-free incubator for 1 h. Assay reagents were loaded into the drug injections ports of the sensor cartridges at 10X in basal assay medium (no BSA). After assessment of basal oxygen consumption in untreated cells oligomycin (5 μM) was injected to inhibit coupled respiration and to determine basal leak respiration. […] By the addition of FCCP (1 μM) maximal respiratory capacity was determined. Lastly, non-mitochondrial oxygen consumption was assessed by blocking mitochondrial respiration with antimycin A (5 μM). […] Oxygen consumption rates were automatically calculated by the Seahorse XF-96 software. […] Results are predominately expressed as stimulated respiration which is calculated as fold increase of basal leak.

[2] = tested on: Ucp1 mRNA in primary brown adipocytes; experiment: Ucp1 gene expression analysis (qRT-PCR), brown adipocytes; format: cell-based, mouse
Description: (§1) Total RNA was isolated using Trisure (Bioline) and purified with SV total RNA Isolation System (Promega). Reverse transcriptase reactions were performed using SensiFAST cDNA Synthesis Kit (Bioline). Quantitative real-time PCR (qRT-PCR) was performed with SYBR green fluorescent dye in 384-well format using LightCycler 480 (Roche). General Transcription Factor IIB (Gtf2b) served as an internal control. To be able to calculate relative gene expression levels of samples, standard reactions containing serial diluted pooled cDNA of all samples (Pure, 1:2, 1:4, 1:8, 1:16, 1:32 and 1:64) as a template were used to establish a standard curve. The RNA abundance of Ucp1 gene was normalized to the housekeeping gene Gtf2b. The following primers were used: […]

[3] = tested on: Ucp1 gene expression in primary brown adipocytes of Ucp1^ki/ki mice; experiment: Luciferase assay, FLUC activity as surrogate for Ucp1 expression; format: cell-based, mouse; conditions: overnight stimulation, normalized to total protein content, n = 3, Figure 1D
Description: After overnight stimulation of primary brown adipocytes of Ucp1^ki/ki mice luciferase activity was assayed using a commercial kit system (Luciferase Assay System Freezer Pack E4030, Promega GmbH). Primary cells were lysed in 1x reporter lysis buffer by shaking for 20 min at room temperature. 10 μl lysate was mixed with 50 μl luciferase assay substrate solution, and the mixture was measured by FB12 in a luminometer (Single Tube Luminometer, Titertek-Berthold GmbH). Bioluminescence readouts were normalized to total protein content.
We then measured FLUC activity in primary brown adipocytes from Ucp1^ki/ki reporter gene mice to determine the effect of the GsPCR ligands on Ucp1 gene expression in response to overnight stimulation. As the expression of Fluc in these cells is driven by Ucp1promoter, FLUC activity served as a surrogate for Ucp1 expression.

primary brown adipocytes = experiment: Microplate-based respirometry (XF96), UCP1-mediated uncoupled respiration; format: cell-based, mouse
Description: Oxygen consumption of primary brown adipocytes was measured at 37°C using microplate-based respirometry (XF96 extracellular flux analyzer, Seahorse Bioscience) as described previously ([Li et al., 2014b]) following the subsequent protocol at day 7 of differentiation. Prior to the respiration measurement, primary cells were washed with warmed, unbuffered assay medium (DMEM basal medium supplemented with 25 mM glucose, 31 mM NaCl, 2 mM GlutaMax and 15 mg/l phenol red, pH 7.4) (basal assay medium). Subsequent to the medium replacement with basal assay medium containing 1–2% essentially fatty acid free bovine serum albumin (BSA), cells were incubated at 37°C in a CO2-free incubator for 1 h. Assay reagents were loaded into the drug injections ports of the sensor cartridges at 10X in basal assay medium (no BSA). After assessment of basal oxygen consumption in untreated cells oligomycin (5 μM) was injected to inhibit coupled respiration and to determine basal leak respiration. Next, effector was added to investigate UCP1-dependant uncoupled respiration. By the addition of FCCP (1 μM) maximal respiratory capacity was determined. Lastly, non-mitochondrial oxygen consumption was assessed by blocking mitochondrial respiration with antimycin A (5 μM). For some experiments, cells were pretreated for 1 h with 50 μM H89 (PKA inhibitor), 1–100 μM propranolol (β-adrenergic receptor antagonist), 40 μM Atglistatin (ATGL inhibitor) and 40 μM Hi76-0079 (HSL inhibitor) 1 h prior to the measurement. Oxygen consumption rates were automatically calculated by the Seahorse XF-96 software. Each experiment was repeated at least three times with similar results and five to eight replicate wells for every condition in each independent experiment. Results are predominately expressed as stimulated respiration which is calculated as fold increase of basal leak.
In our first screen, we tested whether these GsPCR ligands can activate oxygen consumption acutely in brown adipocytes. UCP1-mediated uncoupled respiration was quantified in cultured adherent intact primary brown adipocytes, according to a protocol established in our lab ([Li et al., 2014b]). After recording basal respiration and the fraction of coupled and uncoupled respiration, UCP1-dependent respiration was measured. Finally, maximal respiratory capacity and non-mitochondrial oxygen consumption were assessed by adding the uncoupling agent carbonyl cyanide 4-(trifluoromethoxy) phenylhydrazone (FCCP) and antimycin A was added to block the electron transport chain, respectively. All respiration assays were performed in the presence of BSA to buffer free fatty acid (FFA) levels in the respiration medium.

T37i cells = conditions: ref Iwen et al., 2008, van den Beukel et al., 2014; cited from earlier work
Text: (§2) The melanocortins ACTH and α-MSH are known for their lipolytic action in rodent adipocytes, as first reported in 1958 ([Lafontan, 2012]; [Braun et al., 2018]). […] ACTH enhanced BAT function in obese rats ([York and Al-Baker, 1984]), and increased glucose transport and respiration in isolated brown adipocytes ([Marette and Bukowiecki, 1990]) via fatty acid activation of mitochondrial uncoupled respirati ...

BAT = conditions: supraphysiological dose, 15 μM ACTH; ref van den Beukel et al., 2014; cited from earlier work
Text: as §2

[4] = tested on: immortalized murine adipocytes; conditions: ref Iwen et al., 2008, van den Beukel et al., 2014; cited from earlier work
Text: as §2

[5] = tested on: cytosolic cAMP in primary brown adipocytes; experiment: Quantification of cellular cAMP (cAMP-Glo Assay); format: cell-based, mouse
Description: Changes in cytosolic cAMP concentrations were determined in primary brown adipocytes in response to ACTH- or isoproterenol stimulation using cAMP-Glo Assay (Promega) following the manufacturer’s instructions.

[6] = tested on: Ucp1 mRNA in primary white adipocytes; experiment: Ucp1 gene expression analysis (qRT-PCR), white adipocytes; format: cell-based, mouse; conditions: two different doses of ACTH, iWAT adipocytes, normalized to Gtf2b, n = 4, Figure 3B
Description: as §1

[7] = dose–response experiment, Figure 2A

Substance: ACTH: Murine ACTH(1-39), 39 amino acid peptide hormone, ligand for the melanocortin 2 receptor (MC2R) (SYSMEHFRWGKPVGKKRRPVKVYPNVAENESAEAFPLEF; Corticotropin; UniProt P01193 124-162, looked up)
- ACTH-stimulated respiration in UCP1^-/- compared to UCP1^+/+ cells [1]: attenuated in primary brown adipocytes of UCP1^-/-
- Maximal induction of Ucp1 mRNA relative to ISO ([2]; 1 μM ACTH vs ISO 500 nM, Figures 3A,B): comparable to the effect of ISO treatment
- Ucp1 mRNA levels, differentiated brown adipocytes ([2]; two different doses of ACTH, normalized to Gtf2b, n = 4, Figure 3A): dose-dependent increase in Ucp1 mRNA levels
- FLUC (luciferase) activity as surrogate for Ucp1 expression [3]: moderate rise in FLUC activity
- ACTH concentration that stimulated respiration (fold increase over basal leak respiration) (primary brown adipocytes; [7]): 200 nM
- ACTH concentration with the most robust effect on stimulated respiration (primary brown adipocytes; [7]): 1 µM
- Stimulated respiration (UCP1-dependent uncoupled respiration) as fold increase of basal leak respiration, GsPCR ligand screen (primary brown adipocytes; primary brown adipocytes (129S6 mice), acute addition after oligomycin 5 μM, medium with 1–2% fatty acid free BSA, 37°C, n = 5, Figures 1B,C): most prominent induction of UCP1-dependant uncoupled respiration
- ACTH concentration at which adipocytes respond in cell culture (T37i cells): 50 nM
- Glucose uptake into BAT (BAT): increased glucose uptake into BAT
- ACTH concentration at which adipocytes respond in cell culture [4]: 100 nM
- Cytosolic cAMP levels after ACTH stimulation ([5]; increasing concentrations, 30 min, n = 3, Figure 2D): dose-dependent increase of cytosolic cAMP levels
- EC50 ([5]; stimulation for 30 min, n = 3, non-linear regression, Figure 2D): 1.49 µM
- Ucp1 mRNA levels, differentiated white adipocytes [6]: dose-dependent increase in Ucp1 mRNA levels
